The subject of experiment [1] is Rhynchosporium commune. As to the kind of experiment: Leaf blotch of barley, whole-plant fungicidal activity (RHYNSE). In kind it is in vivo. As to conditions: 24 h, 1DP (1 day protectant), read-out: % Disease Control Rating RHYNSE. On the procedure: Technical grades of materials were dissolved in acetone, which were then mixed with nine volumes of water (H2O) containing 110 ppm Triton X-100. The fungicide solutions were applied onto wheat seedlings using an automated booth sprayer to run-off. All sprayed plants were allowed to air dry prior to further handling. All fungicides were evaluated using the aforementioned method for their activity vs. all target diseases, unless stated otherwise. Example D: Evaluation of Fungicidal Activity: Leaf Blotch of Barley (Rhynchosporium commune; Bayer Code […]) Barley plants (variety 'Harrington') were grown from seed in a greenhouse in soil-less potting mix until the first leaf was fully emerged, with 7-10 seedlings per pot. These plants were inoculated with an aqueous spore suspension of Rhynchosporium commune after fungicide treatments. After inoculation, the plants were kept in a dark dew room with 100% relative humidity for two days to permit spores to germinate and infect the leaf. The plants were then transferred to a greenhouse for disease to develop. Fungicide formulation and application were made as described in Example A. Disease assessment was conducted as described in Example A.

In experiment [2] the test system is Zymoseptoria tritici. Nature of the experiment: Septoria leaf blotch of wheat, whole-plant fungicidal activity (SEPTTR). The class given is in vivo, Zymoseptoria tritici on wheat plants (variety 'Yuma'). As to conditions: read-out: % Disease Control Rating SEPTTR. The procedure:
Example A: Evaluation of Fungicidal Activity: Septoria Leaf Blotch of Wheat (Zymoseptoria tritici; Bayer Code […]) Technical grades of materials were dissolved in acetone, which were then mixed with nine volumes of water (H2O) containing 110 ppm Triton X-100. The fungicide solutions were applied onto wheat seedlings using an automated booth sprayer to run-off. All sprayed plants were allowed to air dry prior to further handling. All fungicides were evaluated using the aforementioned method for their activity vs. all target diseases, unless stated otherwise. Wheat plants (variety 'Yuma') were grown from seed in a greenhouse in soil-less potting mix until the first leaf was fully emerged, with 7-10 seedlings per pot. These plants were inoculated with an aqueous spore suspension of Zymoseptoria tritici either 3 days prior to fungicide treatment (3 day curative; 3DC) or 1 day after fungicide treatment (1 day protectant; 1DP). After inoculation the plants were kept in 100% relative humidity for three days to permit spores to germinate and infect the leaf. The plants were then transferred to a greenhouse for disease to develop. When disease symptoms were fully expressed on the 1st leaves of untreated plants, infection levels were assessed on a scale of 0 to 100 percent disease severity. Percent disease control was calculated using the ratio of disease severity on treated plants relative to untreated plants.

For experiment [3], the system named is Puccinia triticina. Nature of the experiment: Wheat brown rust, whole-plant fungicidal activity (PUCCRT). To be noted: 24 h, 1DP (1 day protectant), read-out: % Disease Control Rating PUCCRT. In kind it is in vivo, Puccinia triticina on wheat plants (variety 'Yuma'). On the procedure:
Technical grades of materials were dissolved in acetone, which were then mixed with nine volumes of water (H2O) containing 110 ppm Triton X-100. The fungicide solutions were applied onto wheat seedlings using an automated booth sprayer to run-off. All sprayed plants were allowed to air dry prior to further handling. All fungicides were evaluated using the aforementioned method for their activity vs. all target diseases, unless stated otherwise.
Example B: Evaluation of Fungicidal Activity: Wheat Brown Rust (Puccinia triticina; Synonym: Puccinia recondita f sp. tritici; Bayer Code PUCCRT)
Wheat plants (variety ‘Yuma’) were grown from seed in a greenhouse in soil-less potting mix until the first leaf was fully emerged, with 7-10 seedlings per pot. These plants were inoculated with an aqueous spore suspension of Puccinia triticina after fungicide treatments. After inoculation, the plants were kept in a dark dew room with 100% relative humidity overnight to permit spores to germinate and infect the leaf. The plants were then transferred to a greenhouse for disease to develop. Fungicide formulation, application and disease assessment followed the procedures as described in Example A.

In experiment [4] the test system is Phakopsora pachyrhizi. Nature of the experiment: Asian soybean rust, whole-plant fungicidal activity (PHAKPA). As to conditions: read-out: % Disease Control Rating PHAKPA. In kind it is in vivo. The procedure:
Example C: Evaluation of Fungicidal Activity: Asian Soybean Rust (Phakopsora pachyrhizi; Bayer Code […]) Technical grades of materials were dissolved in acetone, which were then mixed with nine volumes of H2O containing 0.011% Tween-20. The fungicide solutions were applied onto soybean seedlings using an automated booth sprayer to run-off. All sprayed plants were allowed to air dry prior to further handling. Soybean plants (variety 'Williams 82') were grown in soil-less potting mix, with one plant per pot. Ten-day-old seedlings were used for testing. Plants were inoculated as described in Example A. Plants were incubated for 24 h in a dark dew room with 100% relative humidity then transferred to a growth room for disease to develop. Fungicide formulation and application were made as described in Example A. When disease symptoms were fully expressed, disease severity was assessed on the sprayed leaves on a scale of 0 to 100 percent. Percent disease control was calculated using the ratio of disease severity on treated plants relative to untreated plants.

Read-outs that look alike come from different tables or passages of the source.

Take `CCN(C)/C=N/c1cc(C)c(C(=O)C2CCCC2)cc1C` [Compound 17]: the pest or weed control at 200 ppm is over 85% in experiment [1]; 50 to 85% in experiment [2] (24 h, 1DP (1 day protectant)); under 20% in experiment [2] (72 h, 3DC (3 day curative)); over 85% in experiment [3]; over 85% in experiment [4] (24 h, 1DP (1 day protectant)); over 85% in experiment [4] (72 h, 3DC (3 day curative)).

For the molecule `CCN(C)/C(C)=N/c1cc(C)c(C(=O)Cc2c(F)cc(F)cc2F)cc1C` [Compound 86], the pest or weed control at 200 ppm in experiment [1] was under 20%; in experiment [2] (24 h, 1DP (1 day protectant)), under 20%; in experiment [2] (72 h, 3DC (3 day curative)) it was under 20%; in experiment [3], over 85%; in experiment [4] (24 h, 1DP (1 day protectant)) it was over 85%; in experiment [4] (72 h, 3DC (3 day curative)), over 85%.

Consider `CCN(C)/C=N/c1cc(C)c(C(=O)Cc2ccccc2OC(F)(F)F)cc1C` [Compound 33], for which the pest or weed control at 200 ppm in experiment [1] was over 85%; in experiment [2] (24 h, 1DP (1 day protectant)), over 85%; in experiment [2] (72 h, 3DC (3 day curative)) it was 50 to 85%; in experiment [3] it was over 85%; in experiment [4] (24 h, 1DP (1 day protectant)), over 85%; in experiment [4] (72 h, 3DC (3 day curative)), over 85%.

Turning to `CCN(C)/C=N/c1cc(F)c(C(=O)CC2CCCC2)cc1C` [Compound 30], the pest or weed control at 200 ppm is under 20% in experiment [1]; under 20% in experiment [2] (24 h, 1DP (1 day protectant)); under 20% in experiment [2] (72 h, 3DC (3 day curative)); 50 to 85% in experiment [3]; over 85% in experiment [4] (24 h, 1DP (1 day protectant)); over 85% in experiment [4] (72 h, 3DC (3 day curative)).

Regarding `Cc1cc(C(=O)CC2CCCC2)c(C)cc1/N=C1\CCCCN1C` [Compound 92], the pest or weed control at 200 ppm in experiment [1] was 20 to 50%; in experiment [2] (24 h, 1DP (1 day protectant)), under 20%; in experiment [2] (72 h, 3DC (3 day curative)) it was under 20%; in experiment [3], over 85%; in experiment [4] (24 h, 1DP (1 day protectant)), 50 to 85%; in experiment [4] (72 h, 3DC (3 day curative)), 50 to 85%.

In the case of `CCN(C)/C=N/c1cc(C)c(C(=O)CCC(F)(F)C(F)(F)F)cc1C` [Compound 29], the pest or weed control at 200 ppm was over 85% in experiment [1]; 50 to 85% in experiment [2] (24 h, 1DP (1 day protectant)); 50 to 85% in experiment [2] (72 h, 3DC (3 day curative)); over 85% in experiment [3]; over 85% in experiment [4] (24 h, 1DP (1 day protectant)); over 85% in experiment [4] (72 h, 3DC (3 day curative)).

For `CCN(C)/C=N/c1cc(OC)c(C(=O)CC2CCCC2)cc1C` [Compound 35], the pest or weed control at 200 ppm in experiment [1] is over 85%; in experiment [2] (24 h, 1DP (1 day protectant)) it was 50 to 85%; in experiment [2] (72 h, 3DC (3 day curative)) it was under 20%; in experiment [3], over 85%; in experiment [4] (24 h, 1DP (1 day protectant)) it was over 85%; in experiment [4] (72 h, 3DC (3 day curative)), over 85%.

In the case of `CCN(C)/C=N/c1cc(C)c(C(=O)Cc2ccccc2F)cc1C` [Compound 18], the pest or weed control at 200 ppm was over 85% in experiment [1]; 50 to 85% in experiment [2] (24 h, 1DP (1 day protectant)); under 20% in experiment [2] (72 h, 3DC (3 day curative)); 50 to 85% in experiment [3]; over 85% in experiment [4] (24 h, 1DP (1 day protectant)); over 85% in experiment [4] (72 h, 3DC (3 day curative)).

As for `Cc1cc(C(=O)CC2CCCCC2)c(C)cc1/N=C(\S)N(C)C1CCCCC1` [Compound 48], the pest or weed control at 200 ppm in experiment [1] was under 20%; in experiment [2] (24 h, 1DP (1 day protectant)), under 20%; in experiment [2] (72 h, 3DC (3 day curative)), under 20%; in experiment [3] it was under 20%; in experiment [4] (24 h, 1DP (1 day protectant)), under 20%; in experiment [4] (72 h, 3DC (3 day curative)) it was under 20%.

Regarding `Cc1cc(C(=O)CC2CCCCC2)c(C)cc1/N=C/N(C)Cc1ccccc1` [Compound 56], the pest or weed control at 200 ppm is under 20% in experiment [1]; under 20% in experiment [2] (24 h, 1DP (1 day protectant)); under 20% in experiment [2] (72 h, 3DC (3 day curative)); 20 to 50% in experiment [3]; under 20% in experiment [4] (24 h, 1DP (1 day protectant)); under 20% in experiment [4] (72 h, 3DC (3 day curative)).

Regarding `Cc1cc(C(=O)CC2CCCCC2)c(C)cc1/N=C(\S)N(C)C` [Compound 52], the pest or weed control at 200 ppm in experiment [1] is under 20%; in experiment [2] (24 h, 1DP (1 day protectant)), 20 to 50%; in experiment [2] (72 h, 3DC (3 day curative)), under 20%; in experiment [3], over 85%; in experiment [4] (24 h, 1DP (1 day protectant)), over 85%; in experiment [4] (72 h, 3DC (3 day curative)) it was 50 to 85%.

Turning to `CCN(C)/C(C)=N/c1cc(C)c(C(=O)CC2CCCC2)cc1C` [Compound 90], the pest or weed control at 200 ppm in experiment [1] is 20 to 50%; in experiment [2] (24 h, 1DP (1 day protectant)) it was under 20%; in experiment [2] (72 h, 3DC (3 day curative)) it was under 20%; in experiment [3], over 85%; in experiment [4] (24 h, 1DP (1 day protectant)), over 85%; in experiment [4] (72 h, 3DC (3 day curative)) it was over 85%.

Take `CCN(CC)/C(S)=N/c1cc(C)c(C(=O)CC2CCCCC2)cc1C` [Compound 55]: the pest or weed control at 200 ppm was under 20% in experiment [1]; 50 to 85% in experiment [2] (24 h, 1DP (1 day protectant)); under 20% in experiment [2] (72 h, 3DC (3 day curative)); over 85% in experiment [3]; over 85% in experiment [4] (24 h, 1DP (1 day protectant)); over 85% in experiment [4] (72 h, 3DC (3 day curative)).

With `CCN(C)/C=N/c1ccc(C(=O)CC2CCCC2)cc1C` [Compound 75], the pest or weed control at 200 ppm in experiment [1] was under 20%; in experiment [2] (24 h, 1DP (1 day protectant)) it was under 20%; in experiment [2] (72 h, 3DC (3 day curative)), under 20%; in experiment [3] it was over 85%; in experiment [4] (24 h, 1DP (1 day protectant)) it was 20 to 50%; in experiment [4] (72 h, 3DC (3 day curative)), over 85%.

`Cc1cc(C(=O)Cc2c(F)cc(F)cc2F)c(C)cc1/N=C/N(C)C(C)C` [Compound 79]: the pest or weed control at 200 ppm in experiment [1] is 50 to 85%; in experiment [2] (24 h, 1DP (1 day protectant)) it was under 20%; in experiment [2] (72 h, 3DC (3 day curative)), under 20%; in experiment [3], over 85%; in experiment [4] (24 h, 1DP (1 day protectant)) it was over 85%.

For the molecule `CCN(C)/C=N/c1cc(C)c(C(=O)Cc2ccc(C(C)(C)C)cc2)cc1C` [Compound 67], the pest or weed control at 200 ppm is over 85% in experiment [1]; over 85% in experiment [2] (24 h, 1DP (1 day protectant)); under 20% in experiment [2] (72 h, 3DC (3 day curative)); over 85% in experiment [3]; over 85% in experiment [4] (24 h, 1DP (1 day protectant)); over 85% in experiment [4] (72 h, 3DC (3 day curative)).

Turning to `CCN(C)/C(S)=N/c1cc(C)c(C(=O)CC2CCCCC2)cc1C` [Compound 61], the pest or weed control at 200 ppm in experiment [1] was over 85%; in experiment [2] (24 h, 1DP (1 day protectant)), over 85%; in experiment [2] (72 h, 3DC (3 day curative)), under 20%; in experiment [3], over 85%; in experiment [4] (24 h, 1DP (1 day protectant)), over 85%; in experiment [4] (72 h, 3DC (3 day curative)) it was over 85%.

On to `CCN(C)/C(S)=N/c1cc(C)c(C(=O)Cc2c(F)cc(F)cc2F)cc1C` [Compound 93], for which the pest or weed control at 200 ppm was over 85% in experiment [1]; 50 to 85% in experiment [2] (24 h, 1DP (1 day protectant)); under 20% in experiment [2] (72 h, 3DC (3 day curative)); over 85% in experiment [3]; over 85% in experiment [4] (24 h, 1DP (1 day protectant)); over 85% in experiment [4] (72 h, 3DC (3 day curative)).

(Values after patent US20240000075A1, “FUNGICIDAL ARYL AMIDINES” (CORTEVA AGRISCIENCE LLC, priority 2020, published 2024).)
